Laboratory results taken from patent publication US11419843B2, “Small molecule BCL-2 functional converters as cancer therapeutics” (Oregon State University, priority 2016, dated 2022).

Key:
[1] = system: H460 parental and derived paclitaxel resistant cells; assay: Viability of H460 parental and paclitaxel resistant cells; format: cell-based, human; details: for Viability of H460 resistant vs parental line: 72 hours
Description: Percentage viability relative to vehicle treatment was calculated. Representative of three independent assays conducted in triplicate.
FIG. […] Percentage viability relative to vehicle treatment. Representative of three independent assays conducted in triplicate.
Representative of three independent assays conducted in triplicate.
Cell lines were obtained from ATCC and maintained according to manufacturer's instructions. The human lung cancer cell line NCI-H460, H69AR (ATCC) were cultured in RPMI medium (Corning) containing 10% FBS. The human breast cancer cell line MDA-MB-231 was cultured in DMEM medium (Corning) containing 10% FBS. All cell lines were maintained at 5% CO2 and 37° C. Paclitaxel resistant H460 cells were derived by treating cells once a week over 6 weeks, initially with 1 nM paclitaxel and then increasing dose incrementally up to 100 nM. Once resistance was confirmed, paclitaxel was withdrawn from the cells. Resistance to paclitaxel was maintained without presence of paclitaxel measured up to 2 months. A parental line was maintained for a similar number of passages as the resistant line. All experiments were performed using cells that had not been treated with paclitaxel in at least three passages.
Cells of interest were plated at 2000 cells per well in 96-well black tissue culture plate and allowed to adhere to the plate overnight. Viability assays were performed using 10% serum medium unless otherwise stated. Drugs were diluted in supplemented tissue culture medium and added at increasing concentrations, with DMSO as a vehicle control. […] Luminescence was measured using Tropix TR717 Microplate luminometer. Percentage of viable cells is relative to vehicle (100%). As a complementary viability assay, eBioscience Fixable Viability Dye eFluor 660(65-0864) was used to stain dead cells and analyzed using flow cytometry.

[2] = system: LNCaP, HepG2, H460, A375, U251, ZR-75-1 cells; assay: Viability of a range of cancer cell types; format: cell-based, human
Description: Cell titer glo assay (Promega, CA) was used for assessing viability as per manufacturer instructions. DAPI stain was used to assess apoptosis.

[3] = system: LMD231-Luc cells; assay: Breast cancer lung metastasis model (tail vein, bioluminescence); format: in vivo, nude mice; details: for Growth of lung metastasis (bioluminescence): intraperitoneal, end of 7 weeks
Description: FIG. 19A About 200,000 LMD-231 cells stably expressing luciferase was injected into the tail vein of 6 week old nude mice. Lung metastasis was formed in 2 weeks. Mice were treated with 100 mg/kg BFC1108 4 times a week by intraperitoneal route. Bioluminescent imaging was performed once a week and quantified.
About 200,000 LMD-231 cells stably expressing luciferase was injected into the tail vein of 6 week old nude mice. Lung metastasis was detectable in 2 weeks after injection of tumor cells. Mice were treated with 50 mg/kg of BFC1103 6 times a week by intraperitoneal injections. Bioluminescent imaging was performed once a week and quantified. * P<0.05.
For the lung metastatic study, 5 week old Nude mice were procured from Jackson Labs. About 200,000 LMD231-Luc2 cells in PBS were injected into the tail vein. Lung metastasis could be detected in 2 weeks' time. Treatments with BFC1108 at 100 mg/kg, 4 times a week, were started a day after the cells were injected. Body weight was measured twice a week. Bioluminescence was measured once a week while the mice are under anesthesia. At the end of the study mice were euthanized and lung tissues were dissected and fixed for immunohistochemical analysis.
For experimental lung metastases model, LMD-231 cells derived from MDA-MB-231 that repeatedly colonized lungs were used23. Lenti viral particles with luciferase expression vector (GenTarget, San Diego, Calif.) was used to transduce LMD-231 cells to obtain high luciferase expressing clone after clonal expansion. The stable expression of luciferase was monitored for 7 weeks in vitro before using in animal experiments.
All animal experiments were performed as per approved protocols from the IACUC at Oregon State University. 5 week old nude mice were procured from Jackson Labs (Bar Harbor, Me.). Treatments were started a day after the LMD-Luc cells (200,000 cells suspended in DPBS) were injected into the lateral tail vein. Body weight was measured twice a week. Bioluminescence was measured twice a week using IVIS Lumina II (PerkinElmer, Waltham, Mass.) as per manufacturer instructions, while the mice were under anesthesia.

[4] = molecular target: Bcl-2 loop domain (Homo sapiens, UniProt P10415); assay: Limited proteolysis of GST tagged Bcl-2 loop domain with trypsin; format: biochemical; details: for Proteolysis of Bcl-2 loop domain: 50 μM, trypsin 1, 2, 4 and 8 min
Description: FIG. 11B depicts proteolysis of Bcl-2 loop domain in the presence of methotrexate. GST tagged BCl-2 loop domain was incubated with 1 μM methotrexate at the indicated times to determine if methotrexate interaction with loop domain has an effect on the proteolysis pattern upon co incubation with trypsin.
Purified GST tagged Bcl-2 loop domain was incubated with 50 μM BFC1108 at the indicated times to determine if BFC1108 interaction with loop domain has an effect on the proteolysis pattern upon co-incubation with trypsin.
FIG. 22B depicts limited proteolysis of Bcl-2 loop domain in the presence of BFC1103.
(§1) GST-Bcl-2 and GST only fragments (60 μg) were incubated with 0.1% DMSO or BFC1103 (50 μM) for 1 h and proteolyzed by 3 μg/ml of trypsin for 1, 2, 4 and 8 min. Reactions were quenched by the addition of laemmli buffer. The resulting protease cleavage fragments were resolved on a 12% SDS-PAGE gel and visualized by coomassie blue staining.
as §1, with “GST-Bcl-2 loop71” for “GST-Bcl-2”, “Laemmli” for “laemmli”, “Coomassie” for “coomassie”

[5] = system: MDA-MB-231 cells with or without the Bcl-2 expression vector; assay: Apoptosis in MDA-MB-231 cells (DAPI, annexin V staining); format: cell-based, human; details: 10% FBS

Sequence of Bcl-2 loop domain (P10415 29-90 limits assumed): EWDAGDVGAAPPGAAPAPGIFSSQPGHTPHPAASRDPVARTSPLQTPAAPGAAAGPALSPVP

Row | SMILES | Viability of H460 resistant vs parental line [1] | Viability of various cancer cell lines ([2]; 24 h, 10% FBS) | H&E analysis of lung tissue ([3]; 50 mg/kg, 6 days per week) | Ki67 staining of lung tissue ([3]; 50 mg/kg, 6 days per week) | Growth of lung metastasis (bioluminescence) ([3]; 50 mg/kg, 6 days per week) | Proteolysis of Bcl-2 loop domain [4] | Apoptosis by nuclear condensation and fragmentation (DAPI) ([5]; 10 μM) | Apoptosis by annexin V staining ([5]; indicated concentrations) | Proteolysis pattern of Bcl-2 loop domain ([4]; 1 μM methotrexate, trypsin) | Apoptosis by annexin V staining ([5]; 10 μM, 48 h) | Cell viability, combination with paclitaxel ([1]; paclitaxel 1 nM and BFC1108 20 μM, 24 hours) | Viability of a range of cancer cell types ([2]; 48 h, 10% serum) | Ki-67 staining of lung tissue ([3]; 100 mg/kg, 4 times a week) | Growth of lung metastasis (bioluminescence) ([3]; 100 mg/kg, 4 times a week)
1 | CCCCc1ccc(NC(=O)CN(Cc2ccccc2)S(C)(=O)=O)cc1 [BFC1103, N-2-benzyl-N-1-(4-butylphenyl)-N-2-(methylsulfo-nyl) glycinamide] | reduced viability of resistant line preferentially | reduced the viability of a host of cancer cell types including breast cancer ZR-75-1, non-small cell lung cancer H460, melanoma A375, liver cancer HepG2, and prostate cancer LNCaP cells | potent suppression of tumor growth | lung tissues from vehicle treated mice had a significantly higher number of proliferating cells, as measured by Ki67 staining, than the BFC1103 treated mice | significantly suppressed the growth of lung metastasis | delayed the proteolysis of the loop domain of Bcl-2 |  |  |  |  |  |  |  | 
2 | CN(Cc1cnc2nc(N)nc(N)c2n1)c1ccc(C(=O)N[C@@H](CCC(=O)O)C(=O)O)cc1 [MTX, (2S)-2-[[4-[(2,4 diaminopteridin-6-yl)methylmethylamino]benzoyl]amino] pentanedioc acid] |  |  |  |  |  |  | higher apoptosis rate in the presence of the Bcl-2 protein | increased apoptosis in the presence of the Bcl-2 protein | differential proteolysis pattern |  |  |  |  | 
3 | CCOc1ccccc1NC(=O)c1cc(Cl)ccc1NC(=O)c1ccc(OC)cc1 [BFC1108, 5-chloro-N-(2-ethoxyphenyl)-2-[(4-methoxybenzoyl)amino]-benzamide] | reduced viability of resistant line preferentially |  |  |  |  | increased proteolysis of Bcl-2 loop domain was noticeable by 4 min time point |  |  |  | increased apoptosis in MDA-MB-231/Bcl-2 cells was observed | synergistic reduction in cell viability | reduce viability in a variety of cancer cell types including LNCaP, HepG2, H460, A375 and U251 | only vehicle treated animals showed Ki-67 positivity | suppressed the growth of lung metastasis
